Read-outs that look alike come from different tables or passages of the source.
Columns and labels:
Drosophila OR47a = molecular target: T1, Drosophila OR47a (Drosophila melanogaster, UniProt P81921); assay: Calcium ion fluorescence (GCaMP6) assay, OR47a stable HEK293 cell line; assay type: cell-based; conditions: for activation at 1 µM / activation at 10 µM / activation at 100 µM: HEK293, read-out: OR47a response (VUAA1-normalized response); for Average response / OR47a response (VUAA1-normalized) at 1 μM / OR47a response (VUAA1-normalized) at 10 μM / OR47a response (VUAA1-normalized) at 100 μM: OR47a cell line; for Average response: mean of biological replicates; for OR47a Average response (VUAA1-normalized): 50 μM VUAA1 = 1
T1 construct: expressed in transfected cells
T1 sequence (P81921 1-385): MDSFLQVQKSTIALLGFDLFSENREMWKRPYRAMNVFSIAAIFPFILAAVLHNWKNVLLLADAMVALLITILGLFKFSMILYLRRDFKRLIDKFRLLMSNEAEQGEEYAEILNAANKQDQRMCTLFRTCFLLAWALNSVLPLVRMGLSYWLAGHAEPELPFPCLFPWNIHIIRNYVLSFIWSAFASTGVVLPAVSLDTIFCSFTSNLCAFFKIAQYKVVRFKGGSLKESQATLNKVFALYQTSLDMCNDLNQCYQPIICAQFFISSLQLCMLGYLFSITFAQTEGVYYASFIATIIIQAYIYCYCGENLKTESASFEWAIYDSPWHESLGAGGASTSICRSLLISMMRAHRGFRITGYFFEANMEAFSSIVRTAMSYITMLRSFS
T1 sequence (Q9VNB5 1-486 partner): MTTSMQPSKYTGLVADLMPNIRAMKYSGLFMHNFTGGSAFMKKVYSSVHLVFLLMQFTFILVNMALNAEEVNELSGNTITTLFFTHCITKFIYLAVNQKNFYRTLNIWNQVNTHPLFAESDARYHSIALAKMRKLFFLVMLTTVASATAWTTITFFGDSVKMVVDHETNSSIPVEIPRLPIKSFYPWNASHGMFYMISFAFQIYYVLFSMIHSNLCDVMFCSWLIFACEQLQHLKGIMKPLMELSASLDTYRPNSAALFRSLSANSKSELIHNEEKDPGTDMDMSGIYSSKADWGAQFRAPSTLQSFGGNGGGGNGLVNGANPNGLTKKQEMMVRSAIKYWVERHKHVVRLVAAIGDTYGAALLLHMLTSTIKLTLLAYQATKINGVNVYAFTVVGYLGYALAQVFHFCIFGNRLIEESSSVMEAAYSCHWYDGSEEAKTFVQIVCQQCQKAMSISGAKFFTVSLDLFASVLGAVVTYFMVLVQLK
Procedure: These VUAA1 normalized ∆F values were used to compare the different receptors and ligands.
The concentration-dependent effect of the reference ligands on their cognate cell lines was examined in more detail. Twelve different ligand concentrations were measured on each cell line in an overall 0.01 μM to 100 μM concentration range with 5 repetitions with three technical replicates each time.
Twelve thousand to 18,000 cells were plated into each well of a black wall, transparent bottom 384-well microplate (Greiner) 48 h or 72 h before the measurements and were simultaneously treated with 1 μg/mL doxycycline. […] The plate has 24 columns, thus we could record responses in up to eight different cell lines in each plate. On the day of the experiment, the growth medium was replaced with 20 µL assay buffer/well (140 mM NaCl, 5 mM KCl, 2 mM CaCl2, 1 mM MgCl2, 5 mM HEPES-Na, 20 mM glucose, pH 7.3, 340 mOsm). […] Baseline fluorescence (F0) was recorded for 5 s, after which 7 µL VOC buffer (140 mM NaCl, 5 mM KCl, 2 mM CaCl2, 1 mM MgCl2, 5 mM HEPES-Na, 31 mM glucose, 0.1% DMSO, pH 7.3, 340 mOsm) was injected into each well in one row and the fluorescence response was recorded for an additional 30 s, at a rate of one read/sec. VOC solutions (VOC buffer with 4× concentration of the final measured VOC concentration, 9 µL/well was injected) were measured on the same wells in a second round with the same protocol. Each individual concentration of a specific VOC sample was recorded in three wells for the same cell line on the same microplate. The raw data were exported in xls file format, F0 and FMAX values, and the fluorescence intensity changes (∆F) were calculated in Excel (Microsoft) (Supplementary file Data summary.xlsx) using the following equation: ΔF=FMAX-F0/F0 (see also Fig. 1C). On each plate, we recorded the response of each cell line to 50 µM VUAA1. The average of these ∆F values of each cell line were used to calculate the VUAA1-normalized values for the rest of the plate, by dividing VOC response ∆F values by the average VUAA1 response ∆F value of the corresponding OR cell line. Each VOC-OR combination was measured three times as technical replicates. […] The average of these replicates were used as one ∆F and VUAA1-normalized ∆F in the following analysis.
In the next rows we tested the reference VOCs (or other VOCs known to activate the corresponding cell lines), in order to test if all cell lines are responsive. The remaining rows were used to test VOCs with unknown effect.
The recorded FMAX, F0, ∆F, VUAA1-normalized ∆F values, as well as the OR name, the name of the tested sample, and the final concentration for each well were copied into supplementary file Data summary.xlsx, that was used to summarize all the plates recorded. Here, the averages of the measurements were calculated for each receptor-VOC-concentration combination.

OR49b = tested on: OR49b; parameters: method as in earlier work; conditions: DoOR database value, ref DoOR, cited from earlier work
OR98a = tested on: OR98a; parameters: method as in earlier work; conditions: DoOR database value, OR98a; ref DoOR; cited from earlier work
OR10a = tested on: OR10a; parameters: method as in earlier work; conditions: DoOR database value, ref DoOR, cited from earlier work
OR85b = tested on: OR85b; parameters: method as in earlier work; conditions: DoOR database value, OR85b; ref DoOR; cited from earlier work
OR47a = tested on: OR47a; parameters: method as in earlier work; conditions: DoOR database value; ref DoOR; cited from earlier work
[1] = concentration 1, normalized fluorescence change, values below 0.05 threshold given as 0
[2] = concentration 10, normalized fluorescence change, values below 0.05 threshold given as 0
[3] = concentration 100, normalized fluorescence change, values below 0.05 threshold given as 0
[4] = ligand concentration 1 (unit not given), threshold 0.05, below shown as 0
[5] = ligand concentration 10 (unit not given), threshold 0.05, below shown as 0
[6] = ligand concentration 100 (unit not given), threshold 0.05, below shown as 0
[7] = ligand concentration 1 (unit not given), 0.05 threshold, values below shown as 0
[8] = ligand concentration 10 (unit not given), 0.05 threshold, values below shown as 0
[9] = ligand concentration 100 (unit not given), 0.05 threshold, values below shown as 0

Compound	activation at 1 µM (Drosophila OR47a) [%]	activation at 10 µM (Drosophila OR47a) [%]	activation at 100 µM (Drosophila OR47a) [%]	Average response (Drosophila OR47a; odorant cc. 1 µM)	Average response (Drosophila OR47a; odorant cc. 10 µM)	Average response (Drosophila OR47a; odorant cc. 100 µM)	DF norm AVERAGE OR47a (Drosophila OR47a; [1])	DF norm AVERAGE OR47a (Drosophila OR47a; [2])	DF norm AVERAGE OR47a (Drosophila OR47a; [3])	further results
Cc1cccc(O)c1 [3-methylphenol]	0	0	0	0.00	0.00	0.00	0	0	0	OR49b DoOR response (OR49b): 0.54
CCCCCCCCC=O [nonanal]	–	–	–	0.00	0.00	0.00	–	–	–	OR98a DoOR response (OR98a): 0.085; OR10a DoOR response (OR10a; OR10a): 0.05; OR85b DoOR response (OR85b): 0.091; OR47a response (VUAA1-normalized) at 1 μM (Drosophila OR47a; VOC concentration 1 μM): 0.00; OR47a response (VUAA1-normalized) at 10 μM (Drosophila OR47a; VOC concentration 10 μM): 0.00; OR47a response (VUAA1-normalized) at 100 μM (Drosophila OR47a; VOC concentration 100 μM): 0.00; DF norm AVERAGE OR47a (Drosophila OR47a; [4]): 0; DF norm AVERAGE OR47a (Drosophila OR47a; [5]): 0; DF norm AVERAGE OR47a (Drosophila OR47a; [6]): 0; OR49b DoOR response (OR49b; OR49b): 0.03
CCCCOC(=O)CC [butyl propanoate]	–	–	–	–	–	–	–	–	–	OR47a DoOR response (OR47a): 0.38; OR10a DoOR response (OR10a): 0.011
C=C1[C@H]2CC[C@@H]3[C@H]2C(C)(C)CCC[C@]13C [(+)-longifolene]	–	–	–	0.00	0.00	0.0238	0	0	0	OR47a response (VUAA1-normalized response) (Drosophila OR47a; VOC concentration 1 μM): 0.00; OR47a response (VUAA1-normalized response) (Drosophila OR47a; VOC concentration 10 μM): 0.00; OR47a response (VUAA1-normalized response) (Drosophila OR47a; VOC concentration 100 μM): 0.00
Cc1ccc(C)c(C)c1 [1,2,4-trimethylbenzene]	0	0	0	0.00	0.00	0.00	0	0	0	–
C=C1CC[C@H]2O[C@]2(C)CC[C@@H]2[C@@H]1CC2(C)C [(-)-caryophyllene oxide]	0	0	0	0.00	0.00	0.00	0	0	0	–
CCCCCCCCC(CO)CCCCCC (centres unmarked) [2-hexyl-1-decanol]	0	0	0	0.00	0.05	0.00	0	0	0	–
(-)-alpha-cedrene	–	–	–	0.00	0.00	0.02	0	0	0	OR47a response (VUAA1-normalized response) (Drosophila OR47a; VOC concentration 1 μM): 0.00; OR47a response (VUAA1-normalized response) (Drosophila OR47a; VOC concentration 10 μM): 0.00; OR47a response (VUAA1-normalized response) (Drosophila OR47a; VOC concentration 100 μM): 0.00
CC1=CCC23CC1C(C)(C)C2CCC3C (stereo not drawn) [α-funebrene]	–	–	–	0.00	0.00	0.00	–	–	–	OR47a response (VUAA1-normalized) at 1 μM (Drosophila OR47a; VOC concentration 1 μM): 0.00; OR47a response (VUAA1-normalized) at 10 μM (Drosophila OR47a; VOC concentration 10 μM): 0.00; OR47a response (VUAA1-normalized) at 100 μM (Drosophila OR47a; VOC concentration 100 μM): 0.00; DF norm AVERAGE OR47a (Drosophila OR47a; [7]): 0; DF norm AVERAGE OR47a (Drosophila OR47a; [8]): 0; DF norm AVERAGE OR47a (Drosophila OR47a; [9]): 0
C=C1CCC2(C(C)C)CC12 (centres unmarked) [sabinene]	–	–	–	0.00	0.00	0.00	–	–	–	OR47a response (VUAA1-normalized) at 1 μM (Drosophila OR47a; VOC concentration 1 μM): 0.00; OR47a response (VUAA1-normalized) at 10 μM (Drosophila OR47a; VOC concentration 10 μM): 0.00; OR47a response (VUAA1-normalized) at 100 μM (Drosophila OR47a; VOC concentration 100 μM): 0.00; DF norm AVERAGE OR47a (Drosophila OR47a; [4]): 0; DF norm AVERAGE OR47a (Drosophila OR47a; [5]): 0; DF norm AVERAGE OR47a (Drosophila OR47a; [6]): 0
C=Cc1ccccc1 [styrene]	–	–	–	0.0246	0.00	0.0286	–	–	–	OR47a response (VUAA1-normalized) at 1 μM (Drosophila OR47a; VOC concentration 1 μM): 0.00; OR47a response (VUAA1-normalized) at 10 μM (Drosophila OR47a; VOC concentration 10 μM): 0.00; OR47a response (VUAA1-normalized) at 100 μM (Drosophila OR47a; VOC concentration 100 μM): 0.00; DF norm AVERAGE OR47a (Drosophila OR47a; [7]): 0; DF norm AVERAGE OR47a (Drosophila OR47a; [8]): 0; DF norm AVERAGE OR47a (Drosophila OR47a; [9]): 0
CCCCCCCCCC=O [decanal]	0	0	0	0.00	0.00	0.00	–	–	–	OR10a DoOR response (OR10a): 0.08; DF norm AVERAGE OR47a (Drosophila OR47a; [4]): 0; DF norm AVERAGE OR47a (Drosophila OR47a; [5]): 0; DF norm AVERAGE OR47a (Drosophila OR47a; [6]): 0
C=CC(O)C/C=C\CC (centres unmarked) [(5Z)-octa-1,5-dien-3-ol]	0	0	0	0.00	0.00	0.00	0	0	0	–
CC/C=C/CCO [e3-hexenol]	–	–	–	0.06	0.00	0.14	–	–	–	OR47a Average response (VUAA1-normalized) (Drosophila OR47a; 1 μM VOC): 0.06; OR47a Average response (VUAA1-normalized) (Drosophila OR47a; 10 μM VOC): 0.00; OR47a Average response (VUAA1-normalized) (Drosophila OR47a; 100 μM VOC): 0.14; DF norm AVERAGE OR47a (Drosophila OR47a; [4]): 0.06256; DF norm AVERAGE OR47a (Drosophila OR47a; [5]): 0; DF norm AVERAGE OR47a (Drosophila OR47a; [6]): 0.1396
